# Where “and” joins values, the source holds several entries; their conditions need not be identical. Equal values may be shown once. Read-outs that look alike come from different tables or passages of the source.
# Columns and labels:
# [1] = target: T1, mouse mdr1a (Mus musculus, UniProt P21447); test: P-glycoprotein substrate test, mouse mdr1a transfected LLCPK cells (L-Mdr1a); type: in vitro ADME; details: in vitro
# T1 construct: host or cells: LLCPK (porcine kidney epithelial cells), L-Mdr1a
# Description: (§1) Wild type and transfected MDCKII (ATCC #CCL34, cocker spaniel kidney epithelial cell line) and the LLCPK (ATCC #CL-101, porcine kidney epithelial cell line) cell lines were obtained from Dr A. Schinkel (The Netherlands Cancer Institute, Amsterdam, The Netherlands) and used under license agreement. […] The non-transfected wild-type cell lines MDCKII or LLCPK were used as controls. […] More assay details were recently published.
# [2] = system: Type 2 diabetes animal models; parameters: method as in PMID 17073841, PMID 17981667; details: dose-dependent; cited from earlier work
# [3] = Clinical pharmacokinetics of carmegliptin (plasma and urine) alone or with verapamil; type: in vivo, human; details: for AUC(0-inf) / Cmax / half-life / AUC(0-t) / Vd/F / Tmax: plasma; for Vd/F: read-out: Vz/F; for Tmax: median (range)
# Description: All urine produced by subjects during each sampling interval was collected in pre-weighed polyethylene containers. The urine was refrigerated (2–8°C) between collections and, at the end of each collection interval, an aliquot of ∼10 mL was transferred to polyethylene tubes.
# Plasma and urine samples were analyzed for carmegliptin by high-performance liquid chromatography combined with tandem mass spectrometric detection at F. Hoffmann-La Roche Ltd, Basel, Switzerland. The lower limit of quantification was 1 ng/mL for plasma and 20 ng/mL for urine.
# [4] = system: primary rat hepatocytes; test: Uptake by primary rat hepatocytes; type: in vitro ADME; details: data not shown
# [5] = system: primary human hepatocytes; test: Uptake by primary human hepatocytes; type: in vitro ADME; details: data not shown
# [6] = Clinical safety and tolerability assessments; type: in vivo, human
# Description: Safety assessments during the treatment period included all adverse events, clinical laboratory safety tests (days 3, 9, and 14), urine chemistry (days 1, 10, and 15), 24-h ECGs (days 1, 10, and 15), and Lead-2 telemetry (days 1, 10, and 15). Subjects were resident in the unit on four occasions (day – 1 to day 3, day 6 to day 8 [morning], day 9 [evening] to day 12, and day 14 to day 17). Ambulatory visits were also required on day 8 (evening) and day 9 (morning) for pharmacokinetic sampling.
# All adverse events (AEs) occurring during the clinical study were recorded and their intensity was assessed by investigators as mild, moderate, or severe. AEs occurring before first dosing were reported as baseline signs and symptoms. […] Investigators also assessed each AE’s relationship to treatment as unrelated, remote, possible, or probable. Factors used to determine the relationship to treatment included the temporal association of the AE with administration of study drug, the known pattern of response to the suspected drug, and re-appearance of the AE on re-challenge with the drug.
# Vital signs, systolic and diastolic blood pressure, heart rate, and oral temperature were assessed after the subject had been in a supine position for at least 5 min. Vital signs were recorded at the following time-points: Screening visit, treatment period (days 1, 10, and 15 pre-dose and at 2, 6, and 12 h post-dose, and pre-dose only on days 3, 7, and 11–14), and at the follow-up visit. In addition, 12 lead-ECGs were recorded at screening visit day – 1, on days 1, 10, and 15 (pre-dose and at 2, 6, and 12 h post-dose) and at the follow-up visit. Heart rate, QT, QTcB, PR, and QRS were captured directly from the ECG machine. QTcF and RR were derived. T-wave morphology, the occurrence of U-waves, and any other observed abnormalities were additionally recorded. […] The CRF captured whether the results were normal or abnormal.
# [7] = In vitro cell permeability; type: in vitro ADME
# Description: as §1
# [8] = system: CHO cells; test: Uptake in CHO cells; type: in vitro ADME; details: data not shown
# [9] = target: T2, human MDR1 (Homo sapiens, UniProt P08183); test: P-glycoprotein substrate test, human MDR1 transfected MDCKII cells (M-MDR1); type: in vitro ADME; details: in vitro; M-MDR1 and L-MDR1 cells
# T2 construct: host or cells: MDCKII (canine kidney epithelial cells), M-MDR1
# Description: as §1
# [10] = target: T3, P-glycoprotein (Pgp) (Homo sapiens, UniProt P08183); test: Pgp inhibition potential with digoxin as model substrate (M-MDR1 cells); type: in vitro ADME; details: in vitro
# T3 construct: host or cells: transfected MDCKII or LLCPK cells
# Description: The non-transfected wild-type cell lines MDCKII or LLCPK were used as controls. […] More assay details were recently published.
# [11] = system: Pgp; details: in vitro; cited from earlier work
# [12] = Clinical pharmacokinetics of verapamil and norverapamil alone or with carmegliptin; details: male, human, plasma, oral, 80 mg
# [13] = acute verapamil (day 10) vs day 1
# [14] = carmegliptin 150 mg + chronic verapamil 80 mg t.i.d., day 15, geometric mean (CV%)
# [15] = chronic verapamil (day 15) vs day 1
# [16] = male, human, oral, 150 mg, carmegliptin 150 mg single dose alone, day 1, geometric mean (CV%)
# [17] = male, human, oral, carmegliptin 150 mg + acute verapamil 80 mg t.i.d., day 10, geometric mean (CV%)
# [18] = male, human, oral, carmegliptin 150 mg + chronic verapamil 80 mg t.i.d., day 15, geometric mean (CV%)
# T2 sequence (P08183 whole entry): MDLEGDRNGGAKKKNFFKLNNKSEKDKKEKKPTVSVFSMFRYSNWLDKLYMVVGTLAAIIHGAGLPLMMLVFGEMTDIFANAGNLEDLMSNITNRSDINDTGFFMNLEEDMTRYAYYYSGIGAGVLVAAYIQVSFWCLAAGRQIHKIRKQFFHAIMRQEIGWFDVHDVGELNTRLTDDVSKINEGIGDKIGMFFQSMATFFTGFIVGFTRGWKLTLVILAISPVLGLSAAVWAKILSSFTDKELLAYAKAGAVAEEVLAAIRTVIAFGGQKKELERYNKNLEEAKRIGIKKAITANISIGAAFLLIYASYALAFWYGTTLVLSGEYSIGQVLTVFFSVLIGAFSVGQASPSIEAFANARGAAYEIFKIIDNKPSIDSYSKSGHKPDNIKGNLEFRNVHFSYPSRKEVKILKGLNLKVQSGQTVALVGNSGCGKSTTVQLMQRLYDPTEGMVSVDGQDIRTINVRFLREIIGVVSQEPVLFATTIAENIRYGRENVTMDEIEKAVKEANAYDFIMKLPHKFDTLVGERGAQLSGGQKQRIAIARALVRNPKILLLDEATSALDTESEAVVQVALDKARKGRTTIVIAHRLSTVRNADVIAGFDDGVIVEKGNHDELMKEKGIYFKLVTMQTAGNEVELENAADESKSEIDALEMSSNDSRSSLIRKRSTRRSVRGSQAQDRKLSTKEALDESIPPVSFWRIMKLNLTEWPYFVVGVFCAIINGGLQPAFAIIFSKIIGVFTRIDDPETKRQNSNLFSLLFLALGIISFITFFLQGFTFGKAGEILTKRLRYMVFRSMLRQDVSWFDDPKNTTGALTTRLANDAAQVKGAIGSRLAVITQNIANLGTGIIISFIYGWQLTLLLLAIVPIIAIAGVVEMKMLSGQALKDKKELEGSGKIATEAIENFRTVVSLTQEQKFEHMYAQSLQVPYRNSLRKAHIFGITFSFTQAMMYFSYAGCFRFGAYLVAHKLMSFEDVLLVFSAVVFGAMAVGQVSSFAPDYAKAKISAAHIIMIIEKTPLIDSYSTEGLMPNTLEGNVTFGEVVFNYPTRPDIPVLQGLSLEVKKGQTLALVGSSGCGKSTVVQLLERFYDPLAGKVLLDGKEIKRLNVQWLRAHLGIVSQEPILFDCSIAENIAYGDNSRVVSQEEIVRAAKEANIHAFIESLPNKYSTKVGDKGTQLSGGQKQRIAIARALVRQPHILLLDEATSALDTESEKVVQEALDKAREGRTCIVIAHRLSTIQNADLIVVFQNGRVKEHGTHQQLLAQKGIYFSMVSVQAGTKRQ
# T1 sequence (P21447 whole entry): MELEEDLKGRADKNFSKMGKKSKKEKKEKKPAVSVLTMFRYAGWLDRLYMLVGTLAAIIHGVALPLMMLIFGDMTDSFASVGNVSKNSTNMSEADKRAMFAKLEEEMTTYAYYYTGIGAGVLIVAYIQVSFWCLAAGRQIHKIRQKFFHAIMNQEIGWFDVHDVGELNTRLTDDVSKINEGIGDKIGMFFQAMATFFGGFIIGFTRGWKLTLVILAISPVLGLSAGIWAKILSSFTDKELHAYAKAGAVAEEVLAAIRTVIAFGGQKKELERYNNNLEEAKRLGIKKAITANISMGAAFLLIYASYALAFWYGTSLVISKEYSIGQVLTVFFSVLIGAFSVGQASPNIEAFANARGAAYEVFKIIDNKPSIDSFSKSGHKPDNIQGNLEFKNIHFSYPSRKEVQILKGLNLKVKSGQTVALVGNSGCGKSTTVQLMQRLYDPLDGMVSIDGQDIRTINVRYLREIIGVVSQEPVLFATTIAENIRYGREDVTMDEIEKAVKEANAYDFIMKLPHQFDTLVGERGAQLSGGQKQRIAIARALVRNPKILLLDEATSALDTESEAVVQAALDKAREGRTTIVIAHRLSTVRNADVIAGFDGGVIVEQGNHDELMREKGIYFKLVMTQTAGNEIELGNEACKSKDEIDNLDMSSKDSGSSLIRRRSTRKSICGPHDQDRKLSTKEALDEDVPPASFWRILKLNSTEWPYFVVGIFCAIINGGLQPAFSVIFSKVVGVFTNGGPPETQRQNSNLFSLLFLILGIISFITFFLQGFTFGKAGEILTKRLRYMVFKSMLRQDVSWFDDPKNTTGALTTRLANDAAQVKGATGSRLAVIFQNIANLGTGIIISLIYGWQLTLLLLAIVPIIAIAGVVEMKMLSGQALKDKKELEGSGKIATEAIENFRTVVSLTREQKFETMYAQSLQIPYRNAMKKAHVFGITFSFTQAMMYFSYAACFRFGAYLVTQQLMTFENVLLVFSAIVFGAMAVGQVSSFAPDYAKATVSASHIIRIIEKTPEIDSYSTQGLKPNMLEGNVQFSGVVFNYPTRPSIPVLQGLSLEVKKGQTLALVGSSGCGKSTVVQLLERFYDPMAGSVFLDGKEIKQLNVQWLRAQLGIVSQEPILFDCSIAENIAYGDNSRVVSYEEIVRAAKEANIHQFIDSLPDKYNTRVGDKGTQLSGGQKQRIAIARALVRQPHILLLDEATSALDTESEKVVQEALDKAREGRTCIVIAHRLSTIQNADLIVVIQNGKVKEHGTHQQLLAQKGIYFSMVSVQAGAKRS
# T3 sequence (P08183 whole entry): as the sequence (P08183 whole entry) above
structure (smiles),measurement,setting,value
COc1cc2c(cc1OC)[C@@H]1C[C@H](N)[C@@H](N3C[C@@H](CF)CC3=O)CN1CC2 [Carmegliptin],substrate of rodent mdr1a,[1],good substrate
same,glucose tolerance,[2],improved glucose tolerance
same,AUCinf higher than carmegliptin alone,[3]; [13],19%
same,Cmax higher than carmegliptin alone,[3]; [13],48%
same,maximum plasma levels attained earlier than carmegliptin alone,[3]; [13],~2.25 h
same,Fe (fraction of dose excreted unchanged in urine over 48 h),"[3]; carmegliptin 150 mg + acute verapamil 80 mg t.i.d., day 10, geometric mean (CV%)",33% and 33.1% and 33.1 (17.7) %
same,CLr (renal clearance),[3]; [14],13.6 (14.7) L/h
same,Fe (fraction of dose excreted unchanged in urine over 48 h),[3]; [14],38.7% and 38.7 (18.1) %
same,Fe (fraction of dose excreted unchanged in urine over 48 h),"[3]; carmegliptin 150 mg single dose alone, day 1, geometric mean (CV%)",26% and 26.0 (22.7) %
same,AUCinf higher than carmegliptin alone,[3]; [15],29%
same,Cmax higher than carmegliptin alone,[3]; [15],53%
same,maximum plasma levels attained earlier than carmegliptin alone,[3]; [15],~1.5 h
same,peak concentrations occurred earlier,"[3]; co-administered with verapamil, acute and chronic",1.5 to 2.25 h
same,CL renal,"[3]; male, human, plasma and urine, oral, 150 mg, read-out: CLr (renal clearance) (converted)",215 mL/min
same,AUC(0-inf),[3]; [16],3570 ng·h/mL
same,Cmax,[3]; [16],342 ng/mL
same,half-life,[3]; [16],22.4 h
same,AUC(0-t),"[3]; male, human, oral, 150 mg, carmegliptin 150 mg single dose alone, day 1, geometric mean (CV%), read-out: AUC0–24",2410 ng·h/mL
same,AUC(0-t),"[3]; male, human, oral, 150 mg, carmegliptin 150 mg single dose alone, day 1, geometric mean (CV%), read-out: AUClast",3010 ng·h/mL
same,Vd/F,[3]; [16],1360 L
same,Tmax,"[3]; male, human, oral, 150 mg, carmegliptin 150 mg single dose alone, day 1",3 h
same,AUC(0-inf),[3]; [17],4250 ng·h/mL
same,Cmax,[3]; [17],505 ng/mL
same,half-life,[3]; [17],21.8 h
same,AUC(0-t),"[3]; male, human, oral, carmegliptin 150 mg + acute verapamil 80 mg t.i.d., day 10, geometric mean (CV%), read-out: AUC0–24",2950 ng·h/mL
same,AUC(0-t),"[3]; male, human, oral, carmegliptin 150 mg + acute verapamil 80 mg t.i.d., day 10, geometric mean (CV%), read-out: AUClast",3650 ng·h/mL
same,Vd/F,[3]; [17],1110 L
same,Tmax,"[3]; male, human, oral, carmegliptin 150 mg + acute verapamil 80 mg t.i.d., day 10",0.75 h
same,AUC(0-inf),[3]; [18],4590 ng·h/mL
same,Cmax,[3]; [18],522 ng/mL
same,half-life,[3]; [18],14.4 h
same,AUC(0-t),"[3]; male, human, oral, carmegliptin 150 mg + chronic verapamil 80 mg t.i.d., day 15, geometric mean (CV%), read-out: AUC0–24",3620 ng·h/mL
same,AUC(0-t),"[3]; male, human, oral, carmegliptin 150 mg + chronic verapamil 80 mg t.i.d., day 15, geometric mean (CV%), read-out: AUClast",4280 ng·h/mL
same,Vd/F,[3]; [18],678 L
same,Tmax,"[3]; male, human, oral, carmegliptin 150 mg + chronic verapamil 80 mg t.i.d., day 15",1.5 h
same,uptake process,[4],mainly passive diffusion
same,uptake process,[5],mainly passive diffusion
same,subjects with prolonged PQ(PR) intervals (>200 ms),[6]; after carmegliptin alone (day 1),one
same,tolerability,[6]; combination of carmegliptin and verapamil,generally well tolerated
same,"changes in vital signs, ECGs, or laboratory test variables attributed to treatment",[6]; healthy male volunteers,No changes
same,tolerability,"[6]; healthy male volunteers, carmegliptin 150 mg",generally well tolerated
same,cell permeability,[7],low cell permeability
same,uptake process,[8],mainly passive diffusion
same,substrate of human MDR1 / human Pgp,[9],good substrate
same,inhibitor of P-glycoprotein (Pgp),[10],not an inhibitor
COc1ccc(CCNCCCC(C#N)(c2ccc(OC)c(OC)c2)C(C)C)cc1OC (stereo not shown) [Norverapamil],effect on Pgp activity,[11],inhibitory effects on Pgp activity
same,AUC(0-t),[12],203 ng·h/mL
same,Cmax,[12],63.8 ng/mL
same,Tmax,[12],1 h

# Reference: paper PMC4937633 (Journal of Drug Assessment, 2014)
